Source: PMC6264278, “Corydaline Inhibits Multiple Cytochrome P450 and UDP-Glucuronosyltransferase Enzyme Activities in Human Liver Microsomes” (Molecules, 2011)

Target: T1, UGT1A9 (Homo sapiens, UniProt O60656)
T1 construct: using pooled human liver microsomes; tissue BD Gentest Co. H161; host or cells: pooled human liver microsomes
T1 sequence (O60656 26-530): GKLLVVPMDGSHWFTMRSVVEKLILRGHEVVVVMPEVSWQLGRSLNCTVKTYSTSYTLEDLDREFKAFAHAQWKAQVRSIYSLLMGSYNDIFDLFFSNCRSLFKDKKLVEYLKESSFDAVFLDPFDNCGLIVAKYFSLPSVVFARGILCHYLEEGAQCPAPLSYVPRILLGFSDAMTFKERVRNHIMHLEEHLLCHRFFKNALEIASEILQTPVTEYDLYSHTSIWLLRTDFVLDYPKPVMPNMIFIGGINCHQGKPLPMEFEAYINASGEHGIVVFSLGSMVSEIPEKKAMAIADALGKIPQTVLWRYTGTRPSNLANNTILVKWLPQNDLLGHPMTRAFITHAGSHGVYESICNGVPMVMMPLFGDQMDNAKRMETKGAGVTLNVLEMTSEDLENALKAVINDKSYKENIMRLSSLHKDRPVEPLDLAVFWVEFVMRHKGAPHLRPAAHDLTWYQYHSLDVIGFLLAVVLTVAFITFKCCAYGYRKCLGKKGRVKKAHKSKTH
Experiment: UGT1A9 propofol glucuronidation inhibition in pooled human liver microsomes
Type: in vitro ADME
Description: The inhibitory potencies (IC50 values) of corydaline were also determined with UGT assays in the presence and absence of corydaline (final concentrations of 1–1,000 μM with acetonitrile concentration less than 0.5% v/v) using pooled human liver microsomes. 17β-Estradiol 3-glucuronidation, trifluoperazine glucuronidation, propofol glucuronidation, and azidothymidine glucuronidation activities were determined as probe activities for UGT1A1, UGT1A4, UGT1A9, and UGT2B7, respectively, using LC/MS/MS. Incubation mixtures were prepared in a total volume of 100 μL, as follows: Pooled human liver microsomes (0.2 mg/mL for 17β-estradiol, trifluoperazine and azidothymidine; 0.1 mg/mL for propofol), 2 mM UDPGA, 25 μg/mL alamethicin, 10 mM MgCl2, 50 mM tris buffer (pH 7.4), UGT-isoform specific probe substrate (20 μM 17β-estradiol for UGT1A1, 5 μM trifluoperazine for UGT1A4, 10 μM propofol for UGT1A9, or 100 μM azidothymidine for UGT2B7), and various concentrations of corydaline (1−1000 μM). Reactions were initiated by addition of UDPGA, and incubations were carried out at 37 °C in a shaking water bath for 30 min. […]
Glucuronides produced from UGT isoform-specific substrates were respectively determined by LC/MS/MS. […] Quantification was performed by SRM of the [M+H]^+ ion for trifluoperazine glucuronide and azidothymidine glucuronide or [M−H]^− for 17β-estradiol 3-glucuronide and propofol glucuronide and the related product ion for each metabolite.
Reactions were initiated by addition of NADPH at 37 °C and stopped after 15 min by placement of the incubation tubes on ice and addition of ice-cold methanol (100 μL) containing an internal standard (2.0 μg/mL ^13C6-4-hydroxydiclofenac for diclofenac, 0.5 μg/mL d3-4-hydroxymephenytoin for mephenytoin, or 0.5 μg/mL d9-1-hydroxy-bufuralol for bufuralol). The incubation mixtures were centrifuged at 13,000 × g for 5 min, and aliquots (5 μL) of the supernatants were analyzed by LC/MS/MS. […] Aliquots (5 μL) were analyzed by LC/MS/MS. […]

`COc1cc2c(cc1OC)C1C(C)c3ccc(OC)c(OC)c3CN1CC2` (stereo not drawn) [Corydaline, 2,3,9,10-tetramethoxy-13-methyl-5,8,13,13a-tetrahydro-6H-isoquino[3,2-a]isoquinoline] was tested, and the Ki (human liver microsomes, 10-30 μM propofol) was 37.3 ± 14.4 µM, the “inhibition mode, UGT1A9 propofol glucuronidation” value (mixed competitive-noncompetitive equation, nonlinear regression) was “competitive” and the IC50 (pooled human liver microsomes (H161), 10 μM propofol, mean ± SD, n = 3) was 39.4 ± 6 µM.
